# Measurements from patent US8729082B2, “Substituted imidazoquinoxalines” (Bayer Intellectual Property GmbH, priority 2009, dated 2014).
# Molecular target: T1, human kinase Mps-1 (Homo sapiens, UniProt P33981)
# T1 construct: N-terminally GST-tagged human full length recombinant Mps-1 kinase; purchased Invitrogen, Karslruhe, Germany PV4071
# T1 sequence (P33981 1-857): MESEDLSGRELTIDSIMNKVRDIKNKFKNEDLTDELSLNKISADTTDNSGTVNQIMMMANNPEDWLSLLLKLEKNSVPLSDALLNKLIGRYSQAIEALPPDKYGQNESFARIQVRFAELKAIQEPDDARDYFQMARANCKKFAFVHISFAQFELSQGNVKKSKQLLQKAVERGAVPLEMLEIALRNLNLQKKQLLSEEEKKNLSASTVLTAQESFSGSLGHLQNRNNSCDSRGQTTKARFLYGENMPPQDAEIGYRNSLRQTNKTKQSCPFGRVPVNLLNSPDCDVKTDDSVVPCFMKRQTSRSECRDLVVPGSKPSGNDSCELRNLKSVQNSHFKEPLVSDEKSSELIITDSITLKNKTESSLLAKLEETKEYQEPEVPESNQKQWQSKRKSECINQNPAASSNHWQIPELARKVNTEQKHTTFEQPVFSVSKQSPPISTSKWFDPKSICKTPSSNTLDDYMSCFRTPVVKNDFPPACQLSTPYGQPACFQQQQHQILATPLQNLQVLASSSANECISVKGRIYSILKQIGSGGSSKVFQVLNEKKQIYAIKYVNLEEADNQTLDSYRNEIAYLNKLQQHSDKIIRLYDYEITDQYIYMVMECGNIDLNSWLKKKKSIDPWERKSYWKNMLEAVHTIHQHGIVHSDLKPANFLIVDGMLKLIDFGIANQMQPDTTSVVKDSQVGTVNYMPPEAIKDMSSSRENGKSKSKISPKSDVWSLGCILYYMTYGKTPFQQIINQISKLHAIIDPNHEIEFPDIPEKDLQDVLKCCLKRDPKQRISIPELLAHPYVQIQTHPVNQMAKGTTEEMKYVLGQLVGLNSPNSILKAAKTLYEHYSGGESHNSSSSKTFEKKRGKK
# Assay: Mps-1 kinase assay (HTRF)
# Format: biochemical
# Conditions: lowATP; mean; read-out: Mps1 lowATP mean IC50
# Procedure: The human kinase Mps-1 phosphorylates a biotinylated substrate peptide. Detection of the phosphorylated product is achieved by homogenous time-resolved fluorescence resonance energy transfer (HTRF) from Europium-labelled anti-phospho-Serine/Threonine antibody as donor to streptavidin labelled with cross-linked allophycocyanin (SA-XLent) as acceptor. Compounds are tested for their inhibition of the kinase activity.
# N-terminally GST-tagged human full length recombinant Mps-1 kinase (purchased from Invitrogen, Karslruhe, Germany, cat. no PV4071) was used. As substrate for the kinase reaction a biotinylated peptide of the amino-acid sequence PWDPDDADITEILG (C-terminus in amide form, purchased from Biosynthan GmbH, Berlin) was used.
# For the assay 50 nl of a 100-fold concentrated solution of the test compound in DMSO was pipetted into a black low volume 384 well microtiter plate (Greiner Bio-One, Frickenhausen, Germany), 2 μl of a solution of Mps-1 in assay buffer [0.1 mM sodium-ortho-vanadate, 10 mM MgCl2, 2 mM DTT, 25 mM Hepes pH 7.7, 0.05% BSA, 0.001% Pluronic F-127] were added and the mixture was incubated for 15 min at 22° C. to allow pre-binding of the test compounds to Mps-1 before the start of the kinase reaction. Then the kinase reaction was started by the addition of 3 μl of a solution of 16.7 μM ATP and 1.67 μM peptide in assay buffer and the resulting mixture was incubated for a reaction time of 60 min at 22° C. The concentration of Mps-1 in the assay was adjusted to the activity of the enzyme lot and was chosen appropriate to have the assay in the linear range, typical enzyme concentrations were in the range of about 1 nM (final conc. in the 5 μl assay volume). The reaction was stopped by the addition of 3 μl of a solution of HTRF detection reagents (100 mM Hepes pH 7.4, 0.1% BSA, 40 mM EDTA, 140 nM Streptavidin-XLent [#61GSTXLB, Fa. Cis Biointernational, Marcoule, France], 1.5 nM anti-phospho(Ser/Thr)-Europium-antibody [#AD0180, PerkinElmer LAS, Rodgau-Jügesheim, Germany].
# The resulting mixture was incubated 1 h at 22° C. to allow the binding of the phosphorylated peptide to the anti-phospho(Ser/Thr)-Europium-antibody. Subsequently the amount of phosphorylated substrate was evaluated by measurement of the resonance energy transfer from the Europium-labelled anti-phospho(Ser/Thr) antibody to the Streptavidin-XLent. Therefore, the fluorescence emissions at 620 nm and 665 nm after excitation at 350 nm was measured in a HTRF reader, e.g. a Rubystar (BMG Labtechnologies, Offenburg, Germany) or a Viewlux (PerkinElmer LAS, Rodgau-Jügesheim, Germany). The ratio of the emissions at 665 nm and at […] was taken as the measure for the amount of phosphorylated substrate. The data were normalised (enzyme reaction without inhibitor=0% inhibition, all other assay components but no enzyme=100% inhibition).
row,Structure (SMILES),IC50
1,"CC(C)CNc1nc2ccccc2n2c(-c3ccc4c(c3)OCO4)cnc12 [Example 1-28, 1-(1,3-benzodioxol-5-yl)-N-(2-methylpropyl)imidazo[1,2-a]quinoxalin-4-amine]",9.9 µM
2,"CC(C)CNc1nc2ccccc2n2c(-c3cccc(F)c3F)cnc12 [Example 1-31, 1-(2,3-difluorophenyl)-N-(2-methylpropyl)imidazo[1,2-a]quinoxalin-4-amine]",16.3 µM
3,"COc1ccc(-c2cnc3c(NCC(C)C)nc4ccccc4n23)cc1F [Example 1-33, 1-(3-fluoro-4-methoxyphenyl)-N-(2-methylpropyl)imidazo[1,2-a]quinoxalin-4-amine]",1.76 µM
4,"CC(C)CNc1nc2ccccc2n2c(-c3ccncc3)cnc12 [Example 1-34, N-(2-methylpropyl)-1-(pyridin-4-yl)imidazo[1,2-a]quinoxalin-4-amine]",11.9 µM
5,"CC(C)CNc1nc2ccccc2n2c(-c3ccccc3O)cnc12 [Example 1-35, 2-{4-[(2-methylpropyl)amino]imidazo[1,2-a]quinoxalin-1-yl}phenol]",4.62 µM
6,"CC(C)CNc1nc2ccccc2n2c(-c3cccc(O)c3)cnc12 [Example 1-36, 3-{4-[(2-methylpropyl)amino]imidazo[1,2-a]quinoxalin-1-yl}phenol]",18.6 µM
7,"CC(C)CNc1nc2ccccc2n2c(-c3ccc(O)cc3)cnc12 [Example 1-37, 4-{4-[(2-methylpropyl)amino]imidazo[1,2-a]quinoxalin-1-yl}phenol]",0.301 µM
8,"CC(C)CNc1nc2ccccc2n2c(-c3cc(F)ccc3F)cnc12 [Example 1-41, 1-(2,5-difluorophenyl)-N-(2-methylpropyl)imidazo[1,2-a]quinoxalin-4-amine]",10.6 µM
9,"Cc1ccc(-c2cnc3c(NCC(C)C)nc4ccccc4n23)c(F)c1 [Example 1-42, 1-(2-fluoro-4-methylphenyl)-N-(2-methylpropyl)imidazo[1,2-a]quinoxalin-4-amine]",5.91 µM
10,"CC(C)CNc1nc2ccccc2n2c(-c3cc[nH]n3)cnc12 [Example 1-43, N-(2-methylpropyl)-1-(1H-pyrazol-3-yl)imidazo[1,2-a]quinoxalin-4-amine]",10.4 µM
11,"CC(=O)NCc1cccc(-c2cnc3c(NCC(C)C)nc4ccccc4n23)c1 [Example 1-44, N-(3-{4-[(2-methylpropyl)amino]imidazo[1,2-a]quinoxalin-1-yl}benzyl)acetamide]",11.5 µM
12,"Cc1ccc(-c2cnc3c(NCC(C)C)nc4ccccc4n23)cn1 [Example 1-45, N-(2-methylpropyl)-1-(6-methylpyridin-3-yl)imidazo[1,2-a]quinoxalin-4-amine]",8.19 µM

# The next lines start with the values.
row,IC50,Structure (SMILES)
1,4.98 µM,"CCOc1ccc(-c2cnc3c(NCC(C)C)nc4ccccc4n23)cc1 [Example 1-29, 1-(4-ethoxyphenyl)-N-(2-methylpropyl)imidazo[1,2-a]quinoxalin-4-amine]"
2,15.3 µM,"COc1ccc(-c2cnc3c(NCC(C)C)nc4ccccc4n23)c(C)c1 [Example 1-30, 1-(4-methoxy-2-methylphenyl)-N-(2-methylpropyl)imidazo[1,2-a]quinoxalin-4-amine]"
3,18.9 µM,"CC(C)CNc1nc2ccccc2n2c(-c3cccnc3)cnc12 [Example 1-32, N-(2-methylpropyl)-1-(pyridin-3-yl)imidazo[1,2-a]quinoxalin-4-amine]"
4,6.05 µM,"Cc1ccc(-c2cnc3c(NCC(C)C)nc4ccccc4n23)s1 [Example 1-38, N-(2-methylpropyl)-1-(5-methylthiophen-2-yl)imidazo[1,2-a]quinoxalin-4-amine]"
5,8.86 µM,"CC(C)CNc1nc2ccccc2n2c(-c3ccc4[nH]ccc4c3)cnc12 [Example 1-39, 1-(1H-indol-5-yl)-N-(2-methylpropyl)imidazo[1,2-a]quinoxalin-4-amine]"
6,17.4 µM,"CC(C)CNc1nc2ccccc2n2c(-c3ccc(S(C)(=O)=O)cc3)cnc12 [Example 1-40, N-(2-methylpropyl)-1-[4-(methylsulfonyl)phenyl]imidazo[1,2-a]quinoxalin-4-amine]"
